Earlier results on three compounds are cited in paper PMC13468302, “African Polyherbal Formulations for Type 2 Diabetes: A Systematic Review and Meta-Analysis of Efficacy, Mechanisms, and Therapeutic Potential” (Plants, 2026).

Data set [1] deals with alloxan-induced diabetic Wistar rats. To be noted: combination at 400 mg/kg; 21 days; ref [49].
Data set [2] has as its system HFD + STZ (45 mg/kg)-induced diabetic Sprague Dawley rats. The note with it: UL 100 mg/kg, metformin 50 mg/kg, UL+Met 100/50 mg/kg, insulin 2U; 28 days; ref [44].
Data set [3] has as its system alloxan-induced diabetic Wistar rats. To be noted: 300 mg/kg each orally, 21 days; ref [53].

Regarding `COc1ccc(Cl)cc1C(=O)NCCc1ccc(S(=O)(=O)NC(=O)NC2CCCCC2)cc1` [glibenclamide], the serum glucose reduction in data set [1] was 56.5%.

Consider `CN(C)C(=N)N=C(N)N` [metformin], for which the fasting glucose change in data set [2] is given as −15.34%.

For insulin, the fasting glucose change in data set [2] is listed as −35.65%. For the same compound, the glucose reduction in data set [3] is reported as 69.1%.
